According to patent publication US20250326815A1, “STAPLE-CONTAINING POLYPEPTIDES AND APPLICATION THEREOF” (Soter Biopharma Pte. Ltd., priority 2021, published 2025):

Assays:
Format in all cases: cell-based
GCGR = molecular target: T1, GCGR (Homo sapiens, UniProt P47871); experiment: In vitro agonistic activity on GCGR (cAMP assay); details: HEK293 cell line; for Agonistic activity on GCGR Max Activity (%): Max Dose 100 nM
T1 construct: host or cells: HEK293
Procedure: (§1) The cell lines were constructed by Shanghai WuXi AppTec.
(§2) The compounds to be assayed were serially diluted 4-fold with Bravo to obtain 10 concentrations, with a starting concentration of 30 μM.
(§3) 1) 100 nL of the compound was transferred to an OptiPlate-384 plate using Echo.
(§4) 2) The OptiPlate-384 plate was centrifuged at 1000 rpm for 5 seconds.
(§5) 1) A GLP-1R/GIPR/GCGR cell cryopreservation tube was quickly placed in warm water at 37° C. to thaw.
(§6) 2) The cell suspension was transferred to a 15 mL centrifuge tube, and gently washed with 10 ml of HBSS.
(§7) 3) The centrifuge tube was centrifuged at 1000 rpm at room temperature for 1 minute.
(§8) 4) The supernatant was discarded.
(§9) 5) The cells at the bottom were gently dispersed and gently washed with 10 ml of HBSS. The cells were centrifuged and sedimented, and finally resuspended with the assay buffer.
(§10) 6) Vi-cell was used to measure the cell density and viability.
(§11) 7) The concentration of GLP-1R/GIPR/GCGR cells was diluted to 2.0*105/mL with the assay buffer.
(§12) 8) […] of the diluted cell suspension was transferred to the OptiPlate-384 plate.
(§13) 9) The plate was incubated at room temperature for 30 minutes.
(§14) 1) 10 μL of 800 nM gradient diluted cAMP standard was added into an empty well of the OptiPlate-384 plate.
(§15) 2) 10 μL of cAMP assay reagent was added.
(§16) 3) The OptiPlate-384 plate was covered with a TopSeal-A film and incubated at room temperature for 60 minutes.
(§17) The TopSeal-A was peeled off and the plate was read on the EnVision.

GIPR = molecular target: T2, GIPR (Homo sapiens, UniProt P48546); experiment: In vitro agonistic activity on GIPR (cAMP assay); details: CHO cell line; for Agonistic activity on GIPR Max Activity (%): Max Dose 20 nM
T2 construct: host or cells: CHO
T2 sequence (P48546 22-466): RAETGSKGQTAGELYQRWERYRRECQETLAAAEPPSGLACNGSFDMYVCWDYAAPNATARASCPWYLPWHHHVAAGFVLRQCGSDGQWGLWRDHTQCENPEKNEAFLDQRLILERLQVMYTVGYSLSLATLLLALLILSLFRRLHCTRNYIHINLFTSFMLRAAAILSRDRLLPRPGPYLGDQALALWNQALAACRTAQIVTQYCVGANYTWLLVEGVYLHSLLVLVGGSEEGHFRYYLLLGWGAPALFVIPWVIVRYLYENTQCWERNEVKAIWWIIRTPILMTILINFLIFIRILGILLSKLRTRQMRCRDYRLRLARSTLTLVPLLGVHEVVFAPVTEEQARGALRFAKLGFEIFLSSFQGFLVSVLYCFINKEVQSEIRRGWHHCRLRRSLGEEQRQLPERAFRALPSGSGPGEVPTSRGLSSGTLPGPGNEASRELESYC
Procedure: as §1, §2, §3, §4, §5, §6, §7, §8, §9, §10, §11, §12, §13, §14, §15, §16, §17

GLP-1R = molecular target: T3, GLP-1R (Homo sapiens, UniProt P43220); experiment: In vitro agonistic activity on GLP-1R (cAMP assay); details: HEK293 cell line; for Agonistic activity on GLP-1R Max Activity (%): Max Dose 20 nM
T3 construct: host or cells: HEK293
Procedure: as §1, §2, §3, §4, §5, §6, §7, §8, §9, §10, §11, §12, §13, §14, §15, §16, §17

T3 sequence (P43220 24-463, species assumed): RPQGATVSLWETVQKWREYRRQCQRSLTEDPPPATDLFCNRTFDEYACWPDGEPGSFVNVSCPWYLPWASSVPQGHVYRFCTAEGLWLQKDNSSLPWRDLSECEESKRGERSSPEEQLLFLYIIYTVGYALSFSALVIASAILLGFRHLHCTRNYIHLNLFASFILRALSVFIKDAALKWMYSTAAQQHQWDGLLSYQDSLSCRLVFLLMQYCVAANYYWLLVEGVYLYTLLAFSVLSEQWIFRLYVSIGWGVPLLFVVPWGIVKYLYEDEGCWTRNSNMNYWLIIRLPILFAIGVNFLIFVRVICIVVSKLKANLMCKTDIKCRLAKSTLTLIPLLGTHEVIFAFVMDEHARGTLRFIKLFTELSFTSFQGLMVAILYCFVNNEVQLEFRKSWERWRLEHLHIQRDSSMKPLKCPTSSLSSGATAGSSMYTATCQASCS
T1 sequence (P47871 26-477, species assumed): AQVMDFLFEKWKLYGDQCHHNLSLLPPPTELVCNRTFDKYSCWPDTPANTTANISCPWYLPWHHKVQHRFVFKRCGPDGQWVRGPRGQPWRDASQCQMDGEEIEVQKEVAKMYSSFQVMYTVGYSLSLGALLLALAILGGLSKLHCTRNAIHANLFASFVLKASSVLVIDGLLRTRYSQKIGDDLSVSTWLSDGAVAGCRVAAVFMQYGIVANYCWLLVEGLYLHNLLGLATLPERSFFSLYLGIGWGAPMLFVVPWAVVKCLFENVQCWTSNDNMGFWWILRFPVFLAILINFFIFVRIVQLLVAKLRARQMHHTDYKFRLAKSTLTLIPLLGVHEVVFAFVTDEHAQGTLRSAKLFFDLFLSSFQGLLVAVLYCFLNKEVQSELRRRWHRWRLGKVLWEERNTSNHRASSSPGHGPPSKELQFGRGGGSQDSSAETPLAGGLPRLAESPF

`CC(C)C[C@H](NC(=O)[C@H](CC(C)C)NC(=O)[C@H](Cc1c[nH]c2ccccc12)NC(=O)[C@H](CCC(=O)O)NC(=O)[C@@H](NC(=O)[C@H](Cc1ccccc1)NC(=O)[C@@H]1CCCCNC(=O)CN(C(=O)COCCOCCNC(=O)COCCOCCNC(=O)CC[C@H](NC(=O)CCCCCCCCCCCCCCCCCCC(=O)O)C(=O)O)CC(=O)NCCCC[C@H](NC(=O)[C@H](CCC(=O)O)NC(=O)[C@H](CC(=O)O)NC(=O)[C@H](CC(C)C)NC(=O)[C@H](Cc2ccc(O)cc2)NC(=O)[C@H](CCCCN)NC(=O)[C@H](CO)NC(=O)[C@H](Cc2ccc(O)cc2)NC(=O)[C@H](CC(=O)O)NC(=O)[C@H](CO)NC(=O)[C@@H](NC(=O)[C@H](Cc2ccccc2)NC(=O)[C@@H](NC(=O)CNC(=O)[C@H](CCC(N)=O)NC(=O)C(C)(C)NC(=O)[C@@H](N)Cc2c[nH]cn2)[C@@H](C)O)[C@@H](C)O)C(=O)N[C@@H](CCCCN)C(=O)N[C@@H](C)C(=O)N[C@@H](CCCCN)C(=O)N1)C(C)C)C(=O)N[C@@H](CCC(=O)O)C(=O)NCC(=O)NCC(=O)N1CCC[C@H]1C(=O)N[C@@H](CO)C(=O)N[C@@H](CO)C(=O)NCC(N)=O` [WX002] was tested, and the EC50 (GCGR) was 195 pM, the “Agonistic activity on GCGR Max Activity (%)” value (GCGR) was 144.14% and the EC50 (GIPR) was greater than 20000 pM. The “Agonistic activity on GIPR Max Activity (%)” value (GIPR) was 4.06%, the EC50 (GLP-1R) was 16.9 pM and the “Agonistic activity on GLP-1R Max Activity (%)” value (GLP-1R) was 106.52%.
For `CC(C)C[C@@H]1NC(=O)[C@H](CC(C)C)NC(=O)[C@H](Cc2c[nH]c3ccccc23)NC(=O)[C@@H](NC(=O)[C@@H](NC(=O)[C@H](Cc2ccccc2)NC(=O)[C@H](CCC(=O)O)NC(=O)[C@H](CCCCN)NC(=O)[C@H](C)NC(=O)[C@H](CCCCN)NC(=O)[C@H](CCCCN)NC(=O)[C@H](CCC(=O)O)NC(=O)[C@H](CC(=O)O)NC(=O)[C@H](CC(C)C)NC(=O)[C@H](Cc2ccc(O)cc2)NC(=O)[C@H](CCCCN)NC(=O)[C@H](CO)NC(=O)[C@H](Cc2ccc(O)cc2)NC(=O)[C@H](CC(=O)O)NC(=O)[C@H](CO)NC(=O)[C@@H](NC(=O)[C@H](Cc2ccccc2)NC(=O)[C@@H](NC(=O)CNC(=O)[C@H](CCC(N)=O)NC(=O)C(C)(C)NC(=O)[C@@H](N)Cc2c[nH]cn2)[C@@H](C)O)[C@@H](C)O)C(C)C)CCCCNC(=O)CN(C(=O)COCCOCCNC(=O)COCCOCCNC(=O)CC[C@H](NC(=O)CCCCCCCCCCCCCCCCCCC(=O)O)C(=O)O)CC(=O)NCCCC[C@@H](C(=O)NCC(=O)NCC(=O)N2CCC[C@H]2C(=O)N[C@@H](CO)C(=O)N[C@@H](CO)C(=O)NCC(N)=O)NC1=O` [WX005], the EC50 (GCGR) was 2990 pM, the “Agonistic activity on GCGR Max Activity (%)” value (GCGR) was 140.57% and the EC50 (GIPR) was greater than 20000 pM. For the same molecule, the “Agonistic activity on GIPR Max Activity (%)” value (GIPR) was 1.42%, the EC50 (GLP-1R) was 112 pM and the “Agonistic activity on GLP-1R Max Activity (%)” value (GLP-1R) was 104.24%.
For `CC(C)C[C@H](NC(=O)[C@H](CC(C)C)NC(=O)[C@H](Cc1c[nH]c2ccccc12)NC(=O)[C@H](CCC(=O)O)NC(=O)[C@@H](NC(=O)[C@H](Cc1ccccc1)NC(=O)[C@@H]1CCCCNC(=O)CN(C(=O)COCCOCCNC(=O)COCCOCCNC(=O)CC[C@H](NC(=O)CCCCCCCCCCCCCCCCCCC(=O)O)C(=O)O)CC(=O)NCCCC[C@H](NC(=O)[C@H](CCCCN)NC(=O)[C@H](CCC(=O)O)NC(=O)[C@H](CC(=O)O)NC(=O)[C@H](CC(C)C)NC(=O)[C@H](Cc2ccc(O)cc2)NC(=O)[C@H](CCCCN)NC(=O)[C@H](CO)NC(=O)[C@H](Cc2ccc(O)cc2)NC(=O)[C@H](CC(=O)O)NC(=O)[C@H](CO)NC(=O)[C@@H](NC(=O)[C@H](Cc2ccccc2)NC(=O)[C@@H](NC(=O)CNC(=O)[C@H](CCC(N)=O)NC(=O)C(C)(C)NC(=O)[C@@H](N)Cc2c[nH]cn2)[C@@H](C)O)[C@@H](C)O)C(=O)N[C@@H](C)C(=O)N[C@@H](CCCCN)C(=O)N1)C(C)C)C(=O)N[C@@H](CCC(=O)O)C(=O)NCC(=O)NCC(=O)N1CCC[C@H]1C(=O)N[C@@H](CO)C(=O)N[C@@H](CO)C(=O)NCC(N)=O` [WX003], the EC50 (GCGR) was 624 pM, the “Agonistic activity on GCGR Max Activity (%)” value (GCGR) was 86.01% and the EC50 (GIPR) was greater than 20000 pM. The “Agonistic activity on GIPR Max Activity (%)” value (GIPR) was 1.57%, the EC50 (GLP-1R) was 58.2 pM and the “Agonistic activity on GLP-1R Max Activity (%)” value (GLP-1R) was 111.18%.
